Results as given in patent US8846327B2, “Method of quantifying autoinducer-2” (priority 2007, dated 2014).

Experiments:
AI-2 = settings: Niu C. et al., Lett. Appl. Microbiol. 2006; cited from earlier work
[1] = tested on: Vibrio harveyi BB170 strain; assay: AI-2 reporter bioassay: photogenesis intensity of Vibrio harveyi BB170 reporter bacterium; type: cell-based
Method: An HMF authentic preparation (SIGMA) and a DPD authentic preparation (examination of synthesis was requested to OMM Scientific, and a product synthesized by the company was purchased) were added at a final concentration of 0.001 to 1000 μM to a Vibrio harveyi BB170 strain (purchased from ATCC, cultured under aerobic conditions at 30° C. in a marine medium (manufactured by Difco)) used as an autoinducer-2 (AI-2) reporter bacterium. The photogenesis intensity as the index of the AI-2 activity was measured in the same way as in Keersmaecker S. C. J. et al., J. Biol. Chem., 280(20), pp. 19563-19568, 2005. Namely, the Vibrio harveyi BB170 strain was diluted to 5000-fold as a final concentration with an AB medium (for example, see Bassler et al., Mol. Microbiol., 9, pp. 773-786, 1993), and the reporter bacterium liquid and the authentic preparations were mixed at a volume ratio of 9:1, followed by culturing with aerobic shaking at 30° C. Four hours later, the photogenesis intensity was measured using a chemiluminescence analyzer (Berthold, Mitharas LB940 (product name), detecting chemiluminescence). FIG. 1 illustrates a correlation between the concentrations of the HMF authentic preparation and DPD authentic preparation, and the photogenesis intensity. The HMF authentic preparation and DPD authentic preparation were prepared in glass containers. […]

[2] = tested on: Vibrio harveyi BB170 strain; settings: Keersmaecker et al.; reporter strain of Vibrio harveyi; activity detected at considerably higher concentration than DPD; cited from earlier work

SMILES | AI-2-inhibiting activity (AI-2) | HMF concentration detectable in the bioassay ([1]; calibration curve prepared using glass containers) | HMF-induced photogenesis intensity of the reporter bacterium compared with autoinducer-2 ([1]; reporter bacterium light emission) | autoinducer-2 activity [2]
O=CC=Cc1ccccc1 [Cinnamaldehyde, 3-phenyl-2-propenal] | having an AI-2-inhibiting activity |  |  | 
CC1=C(O)C(=O)CO1 [HMF, 4-hydroxy-5-methyl-3(2H)-furanone] |  | ≤ 0.1 µM | lower than the photogenesis intensity induced by autoinducer-2 | has an autoinducer-2 activity
